Measurements taken from ChEMBL document CHEMBL6114969, “Ultra-short lipopeptides containing d-amino acid exhibiting excellent stability and antibacterial activity against gram-positive bacteria” (Eur J Med Chem, 2025).
≈ marks a conversion by molar mass, not a printed value. Where a SMILES comes first, the peptide text is derived from it. Bridges are numbered along the chain shown (N, C = ends). [ ]: non-standard residue; d: D form. The star is where a group is joined. X1 = CC[C@H](C)CCCCC(=O)*; Dab = NCC[C@H](N)C(=O)O

What was measured:
[1] = Retention time of compound by RP-HPLC analysis; assay type: physicochemical
Staphylococcus aureus [2] = test: Antibacterial activity against Staphylococcus aureus ATCC 25923 incubated for 18 to 24 hrs by broth microdilution method; assay type: functional; conditions: time 18-24 hrs
Staphylococcus aureus [3] = test: Antibacterial activity against Staphylococcus aureus ATCC 29213 incubated for 18 to 24 hrs by broth microdilution method; assay type: functional; conditions: time 18-24 hrs
Staphylococcus aureus [4] = test: Antibacterial activity against methicillin-resistant Staphylococcus aureus ATCC 33591 incubated for 18 to 24 hrs by broth microdilution method; assay type: functional; conditions: time 18-24 hrs
[5] = system: Staphylococcus epidermidis; test: Antibacterial activity against Staphylococcus epidermidis ATCC 12228 incubated for 18 to 24 hrs by broth microdilution method; assay type: functional; conditions: time 18-24 hrs
Enterococcus faecalis = test: Antibacterial activity against Enterococcus faecalis ATCC 29212 incubated for 18 to 24 hrs by broth microdilution method; assay type: functional; conditions: time 18-24 hrs
[6] = Hemolytic activity in mouse Red blood cells incubated for 1 hr by absorbance based analysis; assay type: toxicity, cell-based; conditions: erythrocyte
Staphylococcus aureus [7] = test: Antibacterial activity against methicillin-resistant Staphylococcus aureus ATCC 33591 incubated for 18 to 24 hrs in presence of 0.5 mg/ml of trypsin by broth microdilution method; assay type: functional; conditions: time 18-24 hrs
Staphylococcus aureus [8] = test: Antibacterial activity against methicillin-resistant Staphylococcus aureus ATCC 33591 incubated for 18 to 24 hrs in presence of 1 mg/ml of trypsin by broth microdilution method; assay type: functional; conditions: time 18-24 hrs
Staphylococcus aureus [9] = test: Antibacterial activity against methicillin-resistant Staphylococcus aureus ATCC 33591 incubated for 18 to 24 hrs in presence of 2 mg/ml of trypsin by broth microdilution method; assay type: functional; conditions: time 18-24 hrs
Staphylococcus aureus [10] = test: Antibacterial activity against methicillin-resistant Staphylococcus aureus ATCC 33591 incubated for 18 to 24 hrs in presence of 0.5 mg/ml of chymotrypsin by broth microdilution method; assay type: functional; conditions: time 18-24 hrs
Staphylococcus aureus [11] = test: Antibacterial activity against methicillin-resistant Staphylococcus aureus ATCC 33591 incubated for 18 to 24 hrs in presence of 1 mg/ml of chymotrypsin by broth microdilution method; assay type: functional; conditions: time 18-24 hrs
Staphylococcus aureus [12] = test: Antibacterial activity against methicillin-resistant Staphylococcus aureus ATCC 33591 incubated for 18 to 24 hrs in presence of 2 mg/ml of chymotrypsin by broth microdilution method; assay type: functional; conditions: time 18-24 hrs
Staphylococcus aureus [13] = test: Antibacterial activity against methicillin-resistant Staphylococcus aureus ATCC 33591 incubated for 18 to 24 hrs in presence of 0.5 mg/ml of pepsin by broth microdilution method; assay type: functional; conditions: time 18-24 hrs
Staphylococcus aureus [14] = test: Antibacterial activity against methicillin-resistant Staphylococcus aureus ATCC 33591 incubated for 18 to 24 hrs in presence of 1 mg/ml of pepsin by broth microdilution method; assay type: functional; conditions: time 18-24 hrs
Staphylococcus aureus [15] = test: Antibacterial activity against methicillin-resistant Staphylococcus aureus ATCC 33591 incubated for 18 to 24 hrs in presence of 2 mg/ml of pepsin by broth microdilution method; assay type: functional; conditions: time 18-24 hrs
Staphylococcus aureus [16] = test: Antibacterial activity against methicillin-resistant Staphylococcus aureus ATCC 33591 assessed as fold change in MIC incubated for 18 to 24 hrs in presence of MgCl2 by broth microdilution method; assay type: functional; conditions: time 18-24 hrs
Staphylococcus aureus [17] = test: Antibacterial activity against methicillin-resistant Staphylococcus aureus ATCC 33591 assessed as fold change in MIC incubated for 18 to 24 hrs in presence of NaCl by broth microdilution method; assay type: functional; conditions: time 18-24 hrs
Staphylococcus aureus [18] = test: Antibacterial activity against methicillin-resistant Staphylococcus aureus ATCC 33591 assessed as fold change in MIC incubated for 18 to 24 hrs in presence of 10 percent FBS by broth microdilution method; assay type: functional; conditions: time 18-24 hrs
Staphylococcus aureus [19] = test: Antibacterial activity against methicillin-resistant Staphylococcus aureus ATCC 33591 assessed as fold change in MIC incubated for 18 to 24 hrs in presence of 10 percent mouse serum by broth microdilution method; assay type: functional; conditions: time 18-24 hrs
Staphylococcus aureus [20] = test: Antibacterial activity against drug-resistant Staphylococcus aureus ATCC 25923 incubated for 18 to 24 hrs; assay type: functional; conditions: time 18-24 hrs
Staphylococcus aureus [21] = test: Antibacterial activity against ciprofloxacin-resistant Staphylococcus aureus ATCC 25923 incubated for 18 to 24 hrs; assay type: functional; conditions: time 18-24 hrs
Staphylococcus aureus [22] = test: Antibacterial activity against polymyxin B-resistant Staphylococcus aureus ATCC 25923 incubated for 18 to 24 hrs; assay type: functional; conditions: time 18-24 hrs
Staphylococcus aureus [23] = test: Antibacterial activity against gentamicin-resistant Staphylococcus aureus ATCC 25923 incubated for 18 to 24 hrs; assay type: functional; conditions: time 18-24 hrs
Staphylococcus aureus [24] = test: Antibacterial activity against drug-resistant methicillin-resistant Staphylococcus aureus ATCC 33591 incubated for 18 to 24 hrs; assay type: functional; conditions: time 18-24 hrs
Staphylococcus aureus [25] = test: Antibacterial activity against ciprofloxacin-resistant methicillin-resistant Staphylococcus aureus ATCC 33591 incubated for 18 to 24 hrs; assay type: functional; conditions: time 18-24 hrs
Staphylococcus aureus [26] = test: Antibacterial activity against polymyxin B-resistant methicillin-resistant Staphylococcus aureus ATCC 33591 incubated for 18 to 24 hrs; assay type: functional; conditions: time 18-24 hrs
Staphylococcus aureus [27] = test: Antibacterial activity against gentamicin-resistant methicillin-resistant Staphylococcus aureus ATCC 33591 incubated for 18 to 24 hrs; assay type: functional; conditions: time 18-24 hrs
Staphylococcus aureus [28] = test: Antibacterial activity against methicillin-resistant Staphylococcus aureus ATCC 33591 infected in Balb/c mouse model of skin wound infection assessed as crusted back wound at 10 mg/kg, ip administered thrice at 1, 24 and 48 hrs post-infection measured after 9 days relative to control; assay type: functional; conditions: time 9 day
Staphylococcus aureus [29] = test: Antibacterial activity against methicillin-resistant Staphylococcus aureus ATCC 33591 infected in Balb/c mouse model of skin wound infection assessed as wound heal at 10 mg/kg, ip administered thrice at 1, 24 and 48 hrs post-infection measured after 14 days relative to control; assay type: functional; conditions: time 14 day
[30] = Stability in mouse serum assessed as half life measured upto 96 hrs by RP-HPLC analysis; assay type: ADME, cell-free
[31] = Stability in mouse serum assessed as compound degradation measured upto 96 hrs by RP-HPLC analysis; assay type: ADME, cell-free; conditions: read-out: Drug degradation

| SMILES | Retention_time [1] [min] | MIC (Staphylococcus aureus [2]) [µM] | MIC (Staphylococcus aureus [3]) [µM] | MIC (Staphylococcus aureus [4]) [µM] | MIC [5] [µM] | MIC (Enterococcus faecalis) [µM] | HC10 [6] [µM] | MIC (Staphylococcus aureus [7]) [µM] | MIC (Staphylococcus aureus [8]) [µM] | MIC (Staphylococcus aureus [9]) [µM] | MIC (Staphylococcus aureus [10]) [µM] | MIC (Staphylococcus aureus [11]) [µM] | MIC (Staphylococcus aureus [12]) [µM] | MIC (Staphylococcus aureus [13]) [µM] | MIC (Staphylococcus aureus [14]) [µM] | MIC (Staphylococcus aureus [15]) [µM] | fold change (FC) (Staphylococcus aureus [16]) | fold change (FC) (Staphylococcus aureus [17]) | fold change (FC) (Staphylococcus aureus [18]) | fold change (FC) (Staphylococcus aureus [19]) | also measured |
| --- | --- | --- | --- | --- | --- | --- | --- | --- | --- | --- | --- | --- | --- | --- | --- | --- | --- | --- | --- | --- | --- |
| CCCCCCCCCCCC(=O)N[C@H](CCCNC(=N)N)C(=O)N[C@H](CCCNC(=N)N)C(=O)N[C@@H](Cc1c[nH]c2ccccc12)C(=O)O | 18.527 | 4 (≈ 2.8 µg/mL) | 4 (≈ 2.8 µg/mL) | 4 (≈ 2.8 µg/mL) | 2 (≈ 1.4 µg/mL) | 8 (≈ 5.59 µg/mL) | 128 | 32 | 32 | 64 | 32 | 64 | 64 | 4 | 8 | 32 | <3 | <3 | 8 | 8 |  |
| CN[C@H](CC(C)C)C(=O)N[C@H]1C(=O)N[C@@H](CC(N)=O)C(=O)N[C@H]2C(=O)N[C@H]3C(=O)N[C@H](C(=O)N[C@H](C(=O)O)c4cc(O)cc(O)c4-c4cc3ccc4O)[C@H](O)c3ccc(c(Cl)c3)Oc3cc2cc(c3O[C@@H]2O[C@H](CO)[C@@H](O)[C@H](O)[C@H]2O[C@H]2C[C@](C)(N)[C@H](O)[C@H](C)O2)Oc2ccc(cc2Cl)[C@H]1O [VANCOMYCIN] |  | ≤ 0.5 | ≤ 0.5 | ≤ 0.5 | 1 (≈ 1.45 µg/mL) | 2 (≈ 2.9 µg/mL) |  |  |  |  |  |  |  |  |  |  |  |  |  |  |  |
| CC(C)CCCCC(=O)N[C@@H](CCN)C(=O)N[C@H](C(=O)N[C@@H](CCN)C(=O)N[C@H]1CCNC(=O)[C@H]([C@@H](C)O)NC(=O)[C@H](CCN)NC(=O)[C@H](CCN)NC(=O)[C@H](CC(C)C)NC(=O)[C@@H](Cc2ccccc2)NC(=O)[C@H](CCN)NC1=O)[C@@H](C)O.CC[C@H](C)CCCCC(=O)N[C@@H](CCN)C(=O)N[C@H](C(=O)N[C@@H](CCN)C(=O)N[C@H]1CCNC(=O)[C@H]([C@@H](C)O)NC(=O)[C@H](CCN)NC(=O)[C@H](CCN)NC(=O)[C@H](CC(C)C)NC(=O)[C@@H](Cc2ccccc2)NC(=O)[C@H](CCN)NC1=O)[C@@H](C)O (X1-[Dab]T[Dab][Dab][Dab][dF]L[Dab][Dab]T; lactam 4-C) |  | 4 | 4 | 16 | 2 | 128 |  |  |  |  |  |  |  |  |  |  |  |  |  |  | MIC (Staphylococcus aureus [20]): > 128 µM; MIC (Staphylococcus aureus [21]): 128 µM; MIC (Staphylococcus aureus [22]): 512 µM; MIC (Staphylococcus aureus [23]): > 128 µM; MIC (Staphylococcus aureus [24]): 128 µM; MIC (Staphylococcus aureus [25]): 4 µM; MIC (Staphylococcus aureus [26]): 2050 µM; MIC (Staphylococcus aureus [27]): 128 µM; Activity (Staphylococcus aureus [28]): 100%; Activity (Staphylococcus aureus [29]): 100% |
| CCCCCCCCCCCC(=O)N[C@@H](CCCNC(=N)N)C(=O)N[C@H](CCCNC(=N)N)C(=O)N[C@@H](Cc1c[nH]c2ccccc12)C(=O)O | 18.997 | 4 (≈ 2.8 µg/mL) | 4 (≈ 2.8 µg/mL) | 4 (≈ 2.8 µg/mL) | 2 (≈ 1.4 µg/mL) | 8 (≈ 5.59 µg/mL) | 128 | 16 | 32 | 32 | 16 | 32 | 32 | 64 | 64 | 64 | <3 | <3 | 8 | 4 |  |
| CCCCCCCCCCCC(=O)N[C@@H](CCCNC(=N)N)C(=O)N[C@@H](CCCNC(=N)N)C(=O)N[C@@H](Cc1c[nH]c2ccccc12)C(=O)O | 18.643 | 4 (≈ 2.8 µg/mL) | 4 (≈ 2.8 µg/mL) | 4 (≈ 2.8 µg/mL) | 2 (≈ 1.4 µg/mL) | 8 (≈ 5.59 µg/mL) | 128 | > 128 | > 128 | > 128 | > 128 | > 128 | > 128 | 16 | 32 | 64 | <3 | <3 | 8 | 4 | half-life [30]: 17.4 h; metabolised at 96 h [31]: ~100% |
